Test results as given in ChEMBL document CHEMBL2157897, “Meso-tetrakis(p-sulfonatophenyl)N-confused porphyrin tetrasodium salt: a potential sensitizer for photodynamic therapy” (J Med Chem, 2012).
Activity calls are given as the source filed them. The rule behind the calls is not given here.

How the values were obtained:
HeLa [1] = experiment: Photocytotoxicity against human HeLa cells preincubated for 1 hr prior to illumination measured after 24 hrs post illumination by MTT assay; type: functional, cell-based
SiHa [2] = experiment: Photocytotoxicity against human SiHa cells preincubated for 1 hr prior to illumination measured after 24 hrs post illumination by MTT assay; type: functional, cell-based
[3] = Photocytotoxicity against human SCC131 cells preincubated for 1 hr prior to illumination measured after 24 hrs post illumination by MTT assay; type: functional, cell-based
[4] = Photocytotoxicity against human SCC172 cells preincubated for 1 hr prior to illumination measured after 24 hrs post illumination by MTT assay; type: functional, cell-based
MIA PaCa-2 [5] = experiment: Photocytotoxicity against human MIAPaCa2 cells preincubated for 1 hr prior to illumination measured after 24 hrs post illumination by MTT assay; type: functional, cell-based
HCT-116 [6] = experiment: Photocytotoxicity against human HCT116 cells preincubated for 1 hr prior to illumination measured after 24 hrs post illumination by MTT assay; type: functional, cell-based
MCF7 [7] = experiment: Photocytotoxicity against human MCF7 cells preincubated for 1 hr prior to illumination measured after 24 hrs post illumination by MTT assay; type: functional, cell-based
MDA-MB-231 [8] = experiment: Photocytotoxicity against human MDA-MB-231 cells preincubated for 1 hr prior to illumination measured after 24 hrs post illumination by MTT assay; type: functional, cell-based
MDA-MB-231 [9] = experiment: Induction of ROS generation in human MDA-MB-231 cells using CM-H2DCFDA as probe after 24 hrs post photoirradiation by FACS flow cytometry; type: functional, cell-based
MDA-MB-231 [10] = experiment: Induction of ROS generation in human MDA-MB-231 cells using CM-H2DCFDA as probe at 6 uM after 24 hrs post photoirradiation by FACS flow cytometry (reference value: 13.7 +/- 2.3 %); type: functional
MDA-MB-231 [11] = experiment: Induction of ROS generation in human MDA-MB-231 cells using CM-H2DCFDA as probe at 12 uM after 24 hrs post photoirradiation by FACS flow cytometry (reference value: 13.7 +/- 2.3 %); type: functional
HeLa [12] = experiment: Cytotoxicity against human HeLa cells assessed as cell viability at 10 to 50 uM after 24 hrs by MTT assay in absence of light; type: cell-based
SiHa [13] = experiment: Cytotoxicity against human SiHa cells assessed as cell viability at 10 to 50 uM after 24 hrs by MTT assay in absence of light; type: cell-based
[14] = Cytotoxicity against human SCC131 cells assessed as cell viability at 10 to 50 uM after 24 hrs by MTT assay in absence of light; type: cell-based; conditions: scc131, 24 h
[15] = Cytotoxicity against human SCC172 cells assessed as cell viability at 10 to 50 uM after 24 hrs by MTT assay in absence of light; type: cell-based; conditions: scc172, 24 h
MIA PaCa-2 [16] = experiment: Cytotoxicity against human MIAPaCa2 cells assessed as cell viability at 10 to 50 uM after 24 hrs by MTT assay in absence of light; type: cell-based; conditions: mia paca-2, 24 h
HCT-116 [17] = experiment: Cytotoxicity against human HCT116 cells assessed as cell viability at 10 to 50 uM after 24 hrs by MTT assay in absence of light; type: cell-based; conditions: hct-116, 24 h
MCF7 [18] = experiment: Cytotoxicity against human MCF7 cells assessed as cell viability at 10 to 50 uM after 24 hrs by MTT assay in absence of light; type: cell-based; conditions: mcf7, 24 h
MDA-MB-231 [19] = experiment: Cytotoxicity against human MDA-MB-231 cells assessed as cell viability at 10 to 50 uM after 24 hrs by MTT assay in absence of light; type: cell-based; conditions: mda-mb-231, 24 h
MDA-MB-231 [20] = experiment: Ratio of IC50 for human HeLa cells to IC50 for human MDA-MB-231 cells; type: functional
MDA-MB-231 [21] = experiment: Induction of apoptosis in human MDA-MB-231 cells assessed as early apoptotic cells at 6 uM preincubated for 1 hr followed by photoirradiation by annexin V-FITC/propidium iodide staining based flow cytometry (reference value: 3.5 +/- 0.41 %); type: functional
MDA-MB-231 [22] = experiment: Induction of apoptosis in human MDA-MB-231 cells assessed as early apoptotic cells at 12 uM preincubated for 1 hr followed by photoirradiation by annexin V-FITC/propidium iodide staining based flow cytometry (reference value: 3.5 +/- 0.41 %); type: functional
MDA-MB-231 [23] = experiment: Induction of apoptosis in human MDA-MB-231 cells at 12 uM after 1 hr by annexin V-FITC/propidium iodide staining based flow cytometry in absence of light; type: cell-based; conditions: mda-mb-231, 1 h
MDA-MB-231 [24] = experiment: Induction of apoptosis in human MDA-MB-231 cells assessed as chromatin condensation at 6 uM preincubated for 1 hr followed by photoirradiation measured after 24 hrs by Hoechst staining based fluorescence microscopy (reference value: 10.4 +/- 1.5 %); type: functional
MDA-MB-231 [25] = experiment: Induction of apoptosis in human MDA-MB-231 cells assessed as chromatin condensation at 12 uM preincubated for 1 hr followed by photoirradiation measured after 24 hrs by Hoechst staining based fluorescence microscopy (reference value: 10.4 +/- 1.5 %); type: functional
MDA-MB-231 [26] = experiment: Induction of apoptosis in human MDA-MB-231 cells assessed as chromatin condensation preincubated for 1 hr followed by photoirradiation measured after 24 hrs by Hoechst staining based fluorescence microscopy; type: functional, cell-based
MDA-MB-231 [27] = experiment: Induction of apoptosis in human MDA-MB-231 cells assessed as decrease in mitochondrial membrane potential at 6 uM preincubated for 1 hr followed by photoirradiation measured after 24 hrs by JC1 staining based fluorescence microscopy (reference value: 12.1 +/- 4.9 %); type: functional; set-up: scale not given: the % may be the effect or the level left
MDA-MB-231 [28] = experiment: Induction of apoptosis in human MDA-MB-231 cells assessed as decrease in mitochondrial membrane potential at 12 uM preincubated for 1 hr followed by photoirradiation measured after 24 hrs by JC1 staining based fluorescence microscopy (reference value: 12.1 +/- 4.9 %); type: functional; set-up: scale not given: the % may be the effect or the level left
MDA-MB-231 [29] = experiment: Induction of apoptosis in human MDA-MB-231 cells assessed as PARP cleavage at 12 uM after 1 hr by immunoblotting in absence of light; type: cell-based; conditions: mda-mb-231, 1 h
MDA-MB-231 [30] = experiment: Induction of apoptosis in human MDA-MB-231 cells assessed as PARP cleavage at 6 and 12 uM preincubated for 1 hr followed by photoirradiation by immunoblotting; type: functional, cell-based

O=S(=O)([O-])c1ccc(-c2c3cc(c(-c4ccc(S(=O)(=O)[O-])cc4)c4ccc([nH]4)c(-c4ccc(S(=O)(=O)[O-])cc4)c4nc(c(-c5ccc(S(=O)(=O)[O-])cc5)c5ccc2[nH]5)C=C4)N=C3)cc1.[Na+].[Na+].[Na+].[Na+]
IC50 (HeLa [1]): 25 µM
IC50 (SiHa [2]): 20 µM
IC50 [3]: 13 µM
IC50 [4]: 11 µM
IC50 (MIA PaCa-2 [5]): 8 µM
IC50 (HCT-116 [6]): 8 µM
IC50 (MCF7 [7]): 12 µM
IC50 (MDA-MB-231 [8]): 6 µM
Activity (MDA-MB-231 [9]): Dose-dependent effect
Activity (MDA-MB-231 [10]): 61.8%
Activity (MDA-MB-231 [11]): 79.5%
Activity (HeLa [12]): Non-toxic
Activity (SiHa [13]): Non-toxic
Activity [14]: Non-toxic
Activity [15]: Non-toxic
Activity (MIA PaCa-2 [16]): Non-toxic
Activity (HCT-116 [17]): Non-toxic
Activity (MCF7 [18]): Non-toxic
Activity (MDA-MB-231 [19]): Non-toxic
Ratio IC50 (MDA-MB-231 [20]): 5
Activity (MDA-MB-231 [21]): 65.8%
Activity (MDA-MB-231 [22]): 83.9%
Activity (MDA-MB-231 [23]): Non-toxic
Activity (MDA-MB-231 [24]): 72%
Activity (MDA-MB-231 [25]): 91%
Activity (MDA-MB-231 [26]): Dose-dependent effect
Activity (MDA-MB-231 [27]): 69.7%
Activity (MDA-MB-231 [28]): 88.5%
Activity (MDA-MB-231 [29]): Non-toxic
Activity (MDA-MB-231 [30]): Active
